Experiment: Oral bioavailability in rat
Format: ADME, organism-based
Details: in vivo

Compound | bioavailability
Cc1cc(C)c(C(C)(C)CC(=O)OCC(CO)OCn2cnc3c(O)nc(N)nc32)c(OCc2ccccc2)c1 (stereo not drawn) | 0%
CC(=O)Oc1cc(C)cc(C)c1C(C)(C)CC(=O)OCC(CO)OCn1cnc2c(O)nc(N)nc21 (stereo not drawn) | 15.6%
Nc1nc(O)c2ncn(COC(CO)CO)c2n1 [GANCICLOVIR] | 3.6%
